Test results from BigSolDB 2.1.

Sc1nc2ccccc2[nH]1
solubility (mole fraction)
Settings | 283.15 K | 288.15 K | 293.15 K | 298.15 K | 303.15 K | 308.15 K | 313.15 K | 318.15 K | 323.15 K
in 2-butoxyethanol | 0.0459 | 0.0463 | 0.0469 | 0.0475 | 0.0484 | 0.0491 | 0.0498 | 0.0507 | 0.0515
in 2-ethoxyethanol | 0.0577 | 0.0583 | 0.059 | 0.0599 | 0.0607 | 0.0615 | 0.0623 | 0.0634 | 0.0646
in 2-methoxyethanol | 0.0682 | 0.0691 | 0.0703 | 0.0717 | 0.0729 | 0.0742 | 0.0758 | 0.0775 | 0.0793
in 2-propoxyethanol | 0.0497 | 0.0502 | 0.0506 | 0.0511 | 0.0519 | 0.0526 | 0.0535 | 0.0545 | 0.0555
in MIBK | 0.00859 | 0.00884 | 0.00913 | 0.00945 | 0.00983 | 0.0102 | 0.0106 | 0.011 | 0.0114
in ethyl formate | 0.00169 | 0.0018 | 0.00197 | 0.00211 | 0.00228 | 0.0025 | 0.00273 | 0.003 | 0.00323
in ethylene glycol | 0.0137 | 0.0147 | 0.0162 | 0.0175 | 0.0193 | 0.0206 | 0.022 | 0.0238 | 0.0254
in isobutanol | 0.00371 | 0.0046 | 0.00556 | 0.00638 | 0.00724 | 0.00813 | 0.0092 | 0.0103 | 0.0114
in isopropyl acetate | 0.00245 | 0.00255 | 0.00272 | 0.00283 | 0.00303 | 0.00318 | 0.00337 | 0.00364 | 0.00397
in n-butyl acetate | 0.00529 | 0.00538 | 0.00551 | 0.00564 | 0.00577 | 0.00597 | 0.00614 | 0.00637 | 0.00662
in sec-butanol | 0.00591 | 0.00729 | 0.00851 | 0.00972 | 0.011 | 0.0126 | 0.014 | 0.0159 | 0.0177
